Results taken from PubChem BioAssay (NCI).
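Five concentrations, 48 hours, 96-well plates. Abbreviation: GI50, concentration required for 50% inhibition of growth. TGI marks complete inhibition of growth.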

How the values were obtained:
Test in all cases: DTP human tumour cell line panel, 48 h
786-0 renal = system: 786-0 renal
A498 renal = system: A498 renal
ACHN renal = system: ACHN renal
BT-549 breast = system: BT-549 breast
CAKI-1 renal = system: CAKI-1 renal
DU-145 prostate = system: DU-145 prostate
EKVX NSCLC = system: EKVX NSCLC
HCC-2998 colon = system: HCC-2998 colon
HCT-116 colon = system: HCT-116 colon
HCT-15 colon = system: HCT-15 colon
HOP-92 NSCLC = system: HOP-92 NSCLC
HS 578T breast = system: HS 578T breast
IGROV1 ovarian = system: IGROV1 ovarian
K-562 leukemia = system: K-562 leukemia
KM12 colon = system: KM12 colon
LOX IMVI melanoma = system: LOX IMVI melanoma
M14 melanoma = system: M14 melanoma
MALME-3M melanoma = system: MALME-3M melanoma
MCF7 breast = system: MCF7 breast
MDA-MB-231 breast = system: MDA-MB-231 breast
MDA-MB-435 = system: MDA-MB-435
MDA-MB-468 breast = system: MDA-MB-468 breast
MOLT-4 leukemia = system: MOLT-4 leukemia
NCI-H226 lung = system: NCI-H226 lung
NCI-H23 lung = system: NCI-H23 lung

Question: For `CC1(C)CC[C@]23CC[C@]4(C)[C@H](CC[C@@H]5[C@@]6(C)CC[C@H](N)C(C)(C)[C@@H]6CC[C@]54C)[C@H]2[C@H]1OC3=O`, which GI50 (786-0 renal) is on record?
Answer: Its GI50 is 1450 nM.

Question: And the TGI (786-0 renal)?
Answer: Its TGI is 2920 nM.

Question: And the GI50 (A498 renal)?
Answer: The GI50 was 1480 nM.

Question: What about the TGI (A498 renal) of the same compound?
Answer: Its TGI is 3440 nM.

Question: What about the GI50 (ACHN renal) of the same compound?
Answer: The GI50 was 1680 nM.

Question: What about the TGI (ACHN renal) of the same compound?
Answer: The TGI was 3050 nM.

Question: And the GI50 (BT-549 breast)?
Answer: Its GI50 is 1520 nM.

Question: What about the TGI (BT-549 breast) of the same compound?
Answer: The TGI was 2920 nM.

Question: What about the GI50 (CAKI-1 renal) of the same compound?
Answer: Its GI50 is 1570 nM.

Question: And the TGI (CAKI-1 renal)?
Answer: The TGI was 2980 nM.

Question: What about the GI50 (DU-145 prostate) of the same compound?
Answer: Its GI50 is 1810 nM.

Question: And the TGI (DU-145 prostate)?
Answer: The TGI was 3310 nM.

Question: And the GI50 (EKVX NSCLC)?
Answer: The GI50 was 1700 nM.

Question: What about the TGI (EKVX NSCLC) of the same compound?
Answer: Its TGI is 3160 nM.

Question: And the GI50 (HCC-2998 colon)?
Answer: Its GI50 is 1610 nM.

Question: And the TGI (HCC-2998 colon)?
Answer: Its TGI is 3020 nM.

Question: What about the GI50 (HCT-116 colon) of the same compound?
Answer: Its GI50 is 1600 nM.

Question: What about the TGI (HCT-116 colon) of the same compound?
Answer: The TGI was 3050 nM.

Question: What about the GI50 (HCT-15 colon) of the same compound?
Answer: Its GI50 is 1640 nM.

Question: What about the TGI (HCT-15 colon) of the same compound?
Answer: The TGI was 3070 nM.

Question: What about the GI50 (HOP-92 NSCLC) of the same compound?
Answer: Its GI50 is 1590 nM.

Question: What about the TGI (HOP-92 NSCLC) of the same compound?
Answer: The TGI was 3150 nM.

Question: What about the GI50 (HS 578T breast) of the same compound?
Answer: Its GI50 is 1890 nM.

Question: And the TGI (HS 578T breast)?
Answer: The TGI was 4090 nM.

Question: What about the GI50 (IGROV1 ovarian) of the same compound?
Answer: Its GI50 is 1680 nM.

Question: And the TGI (IGROV1 ovarian)?
Answer: Its TGI is 3100 nM.

Question: And the GI50 (K-562 leukemia)?
Answer: Its GI50 is 2530 nM.

Question: And the TGI (K-562 leukemia)?
Answer: The TGI was > 100000 nM.

Question: And the GI50 (KM12 colon)?
Answer: The GI50 was 1820 nM.

Question: And the TGI (KM12 colon)?
Answer: The TGI was 3410 nM.

Question: And the GI50 (LOX IMVI melanoma)?
Answer: Its GI50 is 1680 nM.

Question: What about the TGI (LOX IMVI melanoma) of the same compound?
Answer: The TGI was 3050 nM.

Question: And the GI50 (M14 melanoma)?
Answer: The GI50 was 1810 nM.

Question: What about the TGI (M14 melanoma) of the same compound?
Answer: The TGI was 3340 nM.

Question: And the GI50 (MALME-3M melanoma)?
Answer: The GI50 was 1670 nM.

Question: And the TGI (MALME-3M melanoma)?
Answer: Its TGI is 3060 nM.

Question: And the GI50 (MCF7 breast)?
Answer: Its GI50 is 1570 nM.

Question: And the TGI (MCF7 breast)?
Answer: The TGI was 3220 nM.

Question: What about the GI50 (MDA-MB-231 breast) of the same compound?
Answer: The GI50 was 1690 nM.

Question: And the TGI (MDA-MB-231 breast)?
Answer: The TGI was 3090 nM.

Question: What about the GI50 (MDA-MB-435) of the same compound?
Answer: The GI50 was 1600 nM.

Question: And the TGI (MDA-MB-435)?
Answer: The TGI was 3110 nM.

Question: What about the GI50 (MDA-MB-468 breast) of the same compound?
Answer: The GI50 was 1690 nM.

Question: And the TGI (MDA-MB-468 breast)?
Answer: Its TGI is 3180 nM.

Question: What about the GI50 (MOLT-4 leukemia) of the same compound?
Answer: Its GI50 is 1850 nM.

Question: What about the TGI (MOLT-4 leukemia) of the same compound?
Answer: Its TGI is 4380 nM.

Question: And the GI50 (NCI-H226 lung)?
Answer: Its GI50 is 2150 nM.

Question: And the TGI (NCI-H226 lung)?
Answer: The TGI was 5470 nM.

Question: What about the GI50 (NCI-H23 lung) of the same compound?
Answer: Its GI50 is 1740 nM.
